In patent US9890188B2, “Substituted nucleosides, nucleotides and analogs thereof” (ALIOS BIOPHARMA, INC., priority 2014, dated 2018) one finds EC50 and IC50 data, which are given here for 24 compounds.

In experiment [1] the test system is Human rhinovirus 1B. Kind of experiment: Picornavirus assay: human rhinovirus 1B cytopathic effect in HeLa-OHIO cells, CellTiter-Glo readout. The conditions noted are these: Rhinovirus A, 96 h, compound and virus added together, 4 d at 33° C. It counts as cell-based. As to the method: (§1) HeLa-OHIO cells (Sigma-Aldrich, St. Louis, Mo.) were plated in 96 well plates at a density of 1.5×10^5 cells per well in assay media (MEM without phenol red or L-glutamine, supplemented with 1% FBS, 1% penicillin/streptomycin, 2 mM GlutaGro, and 1×MEM nonessential amino acids, all from Cellgro, Manassas, Va.). Assay setup took place after allowing cells to adhere for 24 h. Compounds dissolved in DMSO were serially diluted in assay media to 2× final concentration. Media was aspirated from the cells, and 1000 media with compound was added in triplicate. Human rhinovirus 1B (ATCC, Manassas, Va.) was diluted in assay media, and 100 μL was added to cells and compound. The virus inoculum was selected to cause 80-90% cytopathic effect in 4 d. Infected cells were incubated for 4 d at 33° C., 5% CO2. To develop the assay, 100 μL media was replaced with 100 μL CellTiter-Glo® reagent (Promega, Madison, Wis.), and incubated for 10 mins at RT. Luminescence was measured on a Victor X3 multi-label plate reader. Compounds of Formula (I) are active in this assay.

In experiment [2] the target is human rhinovirus 16 polymerase (HRV16pol) (Human rhinovirus 16, UniProt Q82122). Kind of experiment: Picornavirus polymerase inhibition assay: incorporation of tritiated NMP into acid-insoluble RNA products. In kind it is biochemical. The procedure: The enzyme activity of human rhinovirus 16 polymerase (HRV16pol) was measured as an incorporation of tritiated NMP into acid-insoluble RNA products. HRV16pol assay reactions contained 30 Nm recombinant enzyme, 50 Nm heteropolymeric RNA, about 0.5 μCi tritiated NTP, 0.1 Mm of competing cold NTP, 40 Mm Tris-HCl (Ph 7.0), 3 Mm dithiothreitol, and 0.5 Mm MgCl2. Standard reactions were incubated for 2.5 h at 30° C., in the presence of increasing concentration of inhibitor. At the end of the reaction, RNA was precipitated with 10% TCA, and acid-insoluble RNA products were filtered on a size exclusion 96-well plate. After washing of the plate, scintillation liquid was added and radiolabeled RNA products were detected according to standard procedures with a Trilux Microbeta scintillation counter. The compound concentration at which the enzyme-catalyzed rate was reduced by 50% (IC50) was calculated by fitting the data to a non-linear regression (sigmoidal).
Sequence of human rhinovirus 16 polymerase (HRV16pol) (Q82122 1694-2153 limits assumed): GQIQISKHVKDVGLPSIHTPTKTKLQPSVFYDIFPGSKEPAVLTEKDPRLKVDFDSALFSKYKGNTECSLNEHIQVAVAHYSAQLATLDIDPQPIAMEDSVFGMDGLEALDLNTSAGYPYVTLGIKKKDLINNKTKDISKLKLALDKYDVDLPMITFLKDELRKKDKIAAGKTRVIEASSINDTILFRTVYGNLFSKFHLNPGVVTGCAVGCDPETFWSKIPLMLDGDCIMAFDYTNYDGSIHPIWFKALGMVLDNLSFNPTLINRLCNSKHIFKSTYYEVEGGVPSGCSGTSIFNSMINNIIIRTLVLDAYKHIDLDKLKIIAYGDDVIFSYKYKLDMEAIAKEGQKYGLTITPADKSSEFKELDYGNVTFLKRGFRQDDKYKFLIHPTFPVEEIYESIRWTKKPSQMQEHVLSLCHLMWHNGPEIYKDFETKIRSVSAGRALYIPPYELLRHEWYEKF
A value of ‘A’ in the table below indicates an IC50 of <5 μM, a value of 13′ indicates an IC50<20 μM, and a value of ‘C’ indicates an IC50 value of <100 μM.

Experiment [3] concerns Human rhinovirus 1B. Description: Picornavirus assay with 24 h compound pre-incubation before infection: human rhinovirus 1B in HeLa-OHIO cells, CellTiter-Glo readout. It counts as cell-based. The note with it: Rhinovirus A, HeLa-OHIO cells pre-incubated with compound for 24 h before infection, 4 d at 33° C. As to the method:
as §1, with “100 μl” for “1000”, “triplicate. Cells were pre-incubated with the diluted compounds for 24 h before infection.” for “triplicate.”
In general terms: ATP-based viability assays read luminescence as a measure of living cells.

Where [4] appears, read: recombinant HRV16pol, 2.5 h at 30° C., mean of several independent experiments, read-out: IC50.

Read-outs that look alike come from different tables or passages of the source.

In experiment [1], `Nc1ccn([C@@H]2O[C@@](CO)(CF)[C@@H](O)[C@@H]2Cl)c(=O)n1` [Compound 2] came in with an EC50 of 1 to 10 µM. Still for that read-out and setting: then `Nc1ccn([C@@H]2O[C@@](CO)(CCl)[C@@H](O)[C@@H]2F)c(=O)n1` [Compound 3], with below 1 µM. Same read-out and setting: next, `[N-]=[N+]=NC[C@]1(CO)O[C@@H](n2ccc(N)nc2=O)[C@@H](F)[C@@H]1O` [Compound 4]: below 1 µM; `Nc1ccn([C@@H]2O[C@@](CO)(CF)[C@@H](O)[C@@H]2F)c(=O)n1` [Compound 7]: below 1 µM; `C=C[C@]1(CO)O[C@@H](n2ccc(N)nc2=O)[C@@H](F)[C@@H]1O` [Compound 9]: below 1 µM. In experiment [1], `CC[C@]1(CO)O[C@@H](n2ccc(N)nc2=O)[C@@H](F)[C@@H]1O` [Compound 10] displayed an EC50 of 1 to 10 µM. For the compound `Nc1ccn([C@@H]2O[C@](CF)(COP(=O)(O)OP(=O)(O)OP(=O)(O)O)[C@@H](O)[C@@H]2Cl)c(=O)n1` [Compound 16], the IC50 in experiment [2] (setting [4]) was in the range of 20 to 100 µM. `[N-]=[N+]=NC[C@]1(COP(=O)(O)OP(=O)(O)OP(=O)(O)O)O[C@@H](n2ccc(N)nc2=O)[C@@H](F)[C@@H]1O` [Compound 18]: the IC50 in experiment [2] (setting [4]) lay in the range of 5 to 20 µM.

In the case of `O=c1ccn([C@@H]2O[C@](CCl)(COP(=O)(O)OP(=O)(O)OP(=O)(O)O)[C@@H](O)[C@@H]2F)c(=O)[nH]1` [Compound 19], in experiment [2] (setting [4]), the IC50 was below 5 µM. In the case of `Nc1ccn([C@@H]2O[C@](CBr)(COP(=O)(O)OP(=O)(O)OP(=O)(O)O)[C@@H](O)[C@@H]2F)c(=O)n1` [Compound 20], in experiment [2] (setting [4]), the IC50 fell in the range of 20 to 100 µM. As for `Nc1ccn([C@@H]2O[C@](CF)(COP(=O)(O)OP(=O)(O)OP(=O)(O)O)[C@@H](O)[C@@H]2F)c(=O)n1` [Compound 21], the IC50 in experiment [2] was below 5 µM. Turning to `C#C[C@]1(COP(=O)(O)OP(=O)(O)OP(=O)(O)O)O[C@@H](n2ccc(N)nc2=O)[C@@H](F)[C@@H]1O` [Compound 22], the IC50 in experiment [2] (setting [4]) lay in the range of 5 to 20 µM. `C=C[C@]1(COP(=O)(O)OP(=O)(O)OP(=O)(O)O)O[C@@H](n2ccc(N)nc2=O)[C@@H](F)[C@@H]1O` [Compound 23]: in experiment [2] (setting [4]), the IC50 was below 5 µM. The same measure, in the same setting: then `CC[C@]1(COP(=O)(O)OP(=O)(O)OP(=O)(O)O)O[C@@H](n2ccc(N)nc2=O)[C@@H](F)[C@@H]1O` [Compound 24], with below 5 µM. The compound `[N-]=[N+]=NC[C@]1(CO)O[C@@H](n2ccc(N)nc2=O)C[C@@H]1O` [Compound 37] gave an EC50 in experiment [1] below 1 µM.

Turning to `C[C@@H]1[C@H](n2ccc(N)nc2=O)O[C@@](CO)(CF)[C@H]1O` [Compound 41], the EC50 in experiment [3] lay in the range of 1 to 10 µM. As for `Nc1ccn([C@@H]2O[C@@](CO)(C(F)F)[C@@H](O)[C@@H]2O)c(=O)n1` [Compound 44], in experiment [3], the EC50 was 10 to 100 µM. Same read-out and setting: then `Nc1ccn([C@@H]2O[C@@](CO)(CF)[C@@H](O)[C@@H]2O)c(=O)n1` [Compound 45], with 1 to 10 µM.

For the compound `C[C@@H]1[C@H](n2ccc(N)nc2=O)O[C@](CF)(COP(=O)(O)OP(=O)(O)OP(=O)(O)O)[C@H]1O` [Compound 47], in experiment [2] (setting [4]), the half-inhibitory concentration (IC50) is below 5 µM.

`C#C[C@@H]1[C@H](n2ccc(N)nc2=O)O[C@](CF)(COP(=O)(O)OP(=O)(O)OP(=O)(O)O)[C@H]1O` [Compound 48]: the IC50 in experiment [2] (setting [4]) was below 5 µM. In the case of `Nc1ccn([C@@H]2O[C@](CF)(COP(=O)(O)OP(=O)(O)OP(=O)(O)O)[C@@H](O)[C@@H]2CF)c(=O)n1` [Compound 50], the 50% inhibitory concentration (IC50) in experiment [2] (setting [4]) fell in the range of 5 to 20 µM. Still for that read-out and setting: next, `Nc1ccn([C@@H]2O[C@@](COP(=O)(O)OP(=O)(O)OP(=O)(O)O)(C(F)F)[C@@H](O)[C@@H]2O)c(=O)n1` [Compound 52]: below 5 µM. Same read-out and setting: then `Nc1ccn([C@@H]2O[C@](CF)(COP(=O)(O)OP(=O)(O)OP(=O)(O)O)[C@@H](O)[C@@H]2O)c(=O)n1` [Compound 53], with below 5 µM; and `Nc1ccn([C@H]2C[C@H](O)[C@](COP(=O)(O)OP(=O)(O)OP(=O)(O)O)(C(F)F)O2)c(=O)n1` [Compound 54], with below 5 µM.

Broadly, the EC50 is the concentration needed to bring the measured effect to its halfway point. In general, IC50 refers to the concentration at which inhibition is half-maximal.
